From the NIST ThermoML archive (doi:10.1016/j.fluid.2012.01.023)

Key:
[1] = Liquid, Vibrating tube method
[2] = xn = mol fraction of the nth substance listed; conditions: Liquid; for viscosity: Electromagnetically Driven Piston; for mass density: Vibrating tube method

CCCCCCCCCCCCCC [tetradecane]
[1]
Conditions | mass density [kg/m3]
294.4 K, 5030 kPa | 764
294.6 K, 8000 kPa | 766
294.6 K, 9490 kPa | 767
294.8 K, 2050 kPa | 760
294.8 K, 3540 kPa | 762
294.8 K, 6500 kPa | 765
324 K, 3540 kPa | 743
324 K, 5050 kPa | 744
324 K, 6560 kPa | 746
324.1 K, 2070 kPa | 742
324.1 K, 8070 kPa | 747
324.1 K, 9540 kPa | 748
373.3 K, 5060 kPa | 711
373.3 K, 6560 kPa | 712
373.5 K, 2100 kPa | 708
373.5 K, 3560 kPa | 709
373.5 K, 8030 kPa | 713
373.5 K, 9500 kPa | 715
447.5 K, 4920 kPa | 660
447.5 K, 6450 kPa | 662
447.6 K, 1990 kPa | 655
447.6 K, 3590 kPa | 658
447.6 K, 7960 kPa | 665
447.6 K, 9470 kPa | 667

CCCCCCCCCCCCCC [tetradecane] + C
[2]
Conditions | mass density [kg/m3] | viscosity [mPa·s]
294.4 K, x2 = 0.232 | 740 | 1.48
294.6 K, x2 = 0.331 | 728 | 1.16
294.6 K, x2 = 0.364 | 723 | 1.05
294.8 K, x2 = 0.112 | 752 | 1.74
294.8 K, x2 = 0.176 | 746 | 1.64
294.8 K, x2 = 0.282 | 734 | 1.33
324 K, x2 = 0.159 | 726 | 0.97
324 K, x2 = 0.213 | 722 | 0.91
324 K, x2 = 0.264 | 716 | 0.82
324.1 K, x2 = 0.1 | 732 | 1.07
324.1 K, x2 = 0.306 | 711 | 0.75
324.1 K, x2 = 0.342 | 706 | 0.7
373.3 K, x2 = 0.193 | 689 | 0.51
373.3 K, x2 = 0.239 | 683 | 0.49
373.5 K, x2 = 0.09 | 699 | 0.57
373.5 K, x2 = 0.143 | 694 | 0.54
373.5 K, x2 = 0.279 | 678 | 0.46
373.5 K, x2 = 0.317 | 674 | 0.44
447.5 K, x2 = 0.176 | 636 | 0.28
447.5 K, x2 = 0.223 | 631 | 0.27
447.6 K, x2 = 0.078 | 646 | 0.31
447.6 K, x2 = 0.137 | 640 | 0.29
447.6 K, x2 = 0.266 | 625 | 0.25
447.6 K, x2 = 0.303 | 620 | 0.24
